Laboratory results reported in ChEMBL document CHEMBL1123381, “Synthesis and antiviral evaluation of 1,4-dioxane nucleoside analogues related to nucleoside dialdehydes” (1986).
Activity calls are given as the source filed them. No cut-off for these calls is given here.

What was measured:
[1] = The compound was evaluated for cellular toxicity against [3H]thymidine incorporation into DNA of uninfected mouse L-cells; type: functional
Vaccinia virus [2] = assay: The compound was tested for inhibitory activity against vaccinia virus replication; NA=Not active; type: functional, organism-based; details: Orthopoxvirus vaccinia
Vaccinia virus [3] = assay: The compound was tested for inhibitory activity against vaccinia virus replication; type: functional; details: Orthopoxvirus vaccinia; read-out: ID50 (the source's name)

| Structure (SMILES) | [3H]thymidine incorporation, % of control [1] [%] | ID50 (Vaccinia virus [2]) | IC50 (Vaccinia virus [3]) [µM] |
| --- | --- | --- | --- |
| Nc1ncnc2c1ncn2C1COCC(CO)O1 (stereo not drawn) | 95 | inactive | – |
| Nc1nc(O)c2ncn(C3COCC(CO)O3)c2n1 (stereo not drawn) | 99 | inactive | – |
| Nc1ncnc2c1ncn2[C@@H](C=O)O[C@@H](C=O)CO | 8.3 | – | 0.3 |
| C=C(CO)OC(=C)n1cnc2c(N)ncnc21 | 104 | – | 30 |
